The test system of assay [1] is Xanthomonas campestris p.v. phaseoli. As to the kind of experiment: Effect of the antipathogenic protein on bacterial pathogens (growth inhibition). In kind it is cell-based. The settings on record: concentration where the bacteria growth is inhibit in a 50%; ± standard deviation.
The test system of assay [2] is Pseudomonas syringae p.v. syringae. The assay is described as above. In kind it is cell-based. As to conditions: concentration where the bacteria growth is inhibit in a 50%; ± standard deviation.
In assay [3] the test system is Erwinia carotovorum p.v. carotovora. The description is as above. As to conditions: concentration where the bacteria growth is inhibit in a 50%; ± standard deviation. In kind it is cell-based.
The subject of another assay is Pseudomonas avenae. Described as above. The settings on record: concentration where the bacteria growth is inhibit in a 50%; ± standard deviation. In kind it is cell-based.
In assay [4] the test system is Erwinia chrysanthemi p.v. zea. The assay is described as above. The format is cell-based. As to conditions: concentration where the bacteria growth is inhibit in a 50%; ± standard deviation.
Another assay concerns Phytophthora infestans. The format is cell-based. As to conditions: different concentrations.
The subject of a further assay is Cándida albicans. The settings on record: cited from earlier work.
Another assay relates to several plant pathogens. The format is cell-based.

A word on the IC50: it is the concentration that inhibits the measured activity by half. Higher therefore signals weaker potency. Consider “NmDef-02: new anti-pathogenic small cysteine rich protein isolated from Nicotiana megalosiphon; also chemically synthesized without the signal peptide (RECKAQGRHTTCFRDANCVQVCEKQAGWSHGDCRAQFKCKCIFEC; Nicotiana megalosiphon)”, for which the IC50 in assay [1] came to 40 ± 3 µM; in assay [2] it was 26 ± 6 µM; in assay [3], 86 ± 8 µM; with Pseudomonas avenae it was 17 ± 5 µM; in assay [4], 11 ± 8 µM. For the same molecule, the “inhibition of the growth of P. infestans” value in the assay with Phytophthora infestans (FIG. 4B) was “high levels of inhibition growth”.

Turning to “Rs-AFP2: plant anti-pathogenic protein from the literature (QKLCQRPSGTWSGVCGNNNACKNQCIRLEKARHGSCNYVFPAHKCICYFPC; UniProt P30230 30-80, looked up)”, the “activity against Cándida albicans” value in the assay with Cándida albicans is on record as “active in micromolar concentrations”.

For the molecule “SEQ ID No. 9: fragment of the antipathogenic protein NmDef-02 obtained by chemical synthesis (QAGWSHGDCRAQFKCKCIFEC; Nicotiana megalosiphon)”, the “effect of fragments on the pathogen P. infestans” value in the assay with Phytophthora infestans (FIG. 6) is on record as “control or inhibition of pathogen”.

B1: NmDef-Plus: antipathogenic protein fused to the signal peptide of the Saccharomyces cerevisiae alpha factor, expressed in Pichia pastoris (protein)
chain: APVNTTTEDETAQIPAEAVIGYSDLEGDFDVAVLPFSNSTNNGLLFINTTIASIAAKEEGVSRECKAQGRHTTCFRDANCVQVCEKQAGWSHGDCRAQFKCKCIFEC
In the case of B1, the “inhibition of the growth of plant pathogens” value in the assay with several plant pathogens is on record as “high levels of inhibition growth”.

The values are drawn from US9055744B2 (priority 2008, dated 2015).
